Assay results as given in patent publication US10618918B2, “Substituted boronic acids as antimicrobials” (priority 2015, dated 2020).
Like-named read-outs stand apart in the source and are kept apart here.

Tests used:
EC1010 CMY-6 = test: Aztreonam potentiation (MPC@4), strain EC1010 CMY-6
KP1004 KPC-2 [1] = test: Aztreonam potentiation (MPC@4), strain KP1004 KPC-2
ec308 SHV-5 = test: Aztreonam potentiation (MPC@4), strain ec308 SHV-5; conditions: minimum BLI concentration inhibiting growth with aztreonam 4 μg/mL; tested up to 40 μg/mL
AB1054 OXA-23 = test: Meropenem potentiation (MPC@8), strain AB1054 OXA-23; type: cell-based, Acinetobacter baumannii
KP1005 CTX-M-14 = test: Tigemonam potentiation (MPC@4), strain KP1005 CTX-M-14
KP1010 SHV-12 = test: Aztreonam potentiation (MPC@4), strain KP1010 SHV-12
KP1086 OXA-48 = test: Biapenem potentiation (MPC@1), strain KP1086 OXA-48; type: cell-based; conditions: minimum BLI concentration inhibiting growth with biapenem 1 μg/mL; tested up to 40 μg/mL
Protocol: (§1) Biapenem was present in the test medium at 1 μg/mL. […] Table 3 summarizes the BLI potency of biapenem potentiation (MPC@1) for two strains overexpressing class A (KPC) and class D (OXA-48) carbapenemases. Biapenem MIC for each strain is also shown.

ec302 TEM-10 = test: Aztreonam potentiation (MPC@4), strain ec302 TEM-10; conditions: minimum BLI concentration inhibiting growth with aztreonam 4 μg/mL; tested up to 40 μg/mL
KP1009 CTX-M-15 = test: Aztreonam potentiation (MPC@4), strain KP1009 CTX-M-15; conditions: minimum BLI concentration inhibiting growth with aztreonam 4 μg/mL; tested up to 40 μg/mL
ECL1002 = test: Aztreonam potentiation (MPC@4), strain ECL1002; conditions: minimum BLI concentration inhibiting growth with aztreonam 4 μg/mL; tested up to 40 μg/mL
AB1053 OXA-72 = test: Meropenem potentiation (MPC@8), strain AB1053 OXA-72; type: cell-based, Acinetobacter baumannii; conditions: minimum BLI concentration inhibiting growth with meropenem 8 μg/mL; tested up to 20 μg/mL
KP1004 KPC-2 [2] = test: Biapenem potentiation (MPC@1), strain KP1004 KPC-2; type: cell-based; conditions: minimum BLI concentration inhibiting growth with biapenem 1 μg/mL; tested up to 40 μg/mL
Protocol: as §1

PAM1154/KPC-2 = test: Biapenem potentiation MPC64 in PAM1154/KPC-2 (efflux deficient, lacks MexAB-OprM); type: cell-based, Pseudomonas aeruginosa
Protocol: (§2) Efflux of BLIs from Pseudomonas aeruginosa by the MexAB-OprM efflux pump was also evaluated. The plasmid expressing the gene encoding KPC-2 was introduced into two strains of P. aeruginosa, PAM1032 and PAM 1154 that overexpressed or lacked MexAB-OprM, respectively. […] Potency of BLIs to potentiate biapenem in these strains was determined.

PAM1032/KPC-2 = test: Biapenem potentiation MPC64 in PAM1032/KPC-2 (efflux proficient, overexpresses MexAB-OprM); type: cell-based, Pseudomonas aeruginosa
Protocol: as §2

[3] = biological target: T1, purified class A, C and D enzymes (β-lactamases) (Acinetobacter baumannii, UniProt Q9L4P2); test: biochemical; type: biochemical; conditions: purified OXA-23; nitrocefin (NCF) as reporter substrate
T1 construct: rows headed: Ki (OXA-23, NCF), uM; other: purified OXA-23; nitrocefin (NCF) as reporter substrate

[4] = biological target: purified class A, C and D enzymes (β-lactamases) (Enterobacter cloacae, UniProt P05364); test: biochemical; type: biochemical
[5] = biological target: purified class A, C and D enzymes (β-lactamases) (Klebsiella pneumoniae, UniProt Q6XEC0); test: biochemical; type: biochemical
[6] = biological target: T2, purified class A, C and D enzymes (β-lactamases) (UniProt P0AD64, L31Q/G234S/E235K, species not given); test: biochemical; type: biochemical; conditions: purified SHV-12; nitrocefin (NCF) as reporter substrate; read-out: Ki (SHV-12, NCF)
T2 construct: Ki (SHV-12, NCF), uM; other: purified SHV-12; nitrocefin (NCF) as reporter substrate
T2 sequence (P0AD64 1-286 L31Q/G234S/E235K): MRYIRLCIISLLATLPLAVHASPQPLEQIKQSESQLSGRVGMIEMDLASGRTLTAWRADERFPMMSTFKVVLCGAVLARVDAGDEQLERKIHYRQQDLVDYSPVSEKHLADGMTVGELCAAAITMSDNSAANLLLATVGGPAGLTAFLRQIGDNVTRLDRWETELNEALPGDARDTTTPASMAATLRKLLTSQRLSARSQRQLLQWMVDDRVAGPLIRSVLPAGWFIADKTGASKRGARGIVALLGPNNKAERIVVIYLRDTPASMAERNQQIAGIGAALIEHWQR

[7] = biological target: purified class A, C and D enzymes (β-lactamases) (Escherichia coli, UniProt Q9L5C7); test: biochemical; type: biochemical
[8] = biological target: T3, purified class A, C and D enzymes (β-lactamases) (Pseudomonas aeruginosa, UniProt P24735); test: biochemical; type: biochemical
T3 construct: rows headed: Ki (Pa-AmpC, NCF), uM; other: purified Pa-AmpC; nitrocefin (NCF) as reporter substrate

[9] = biological target: purified class A, C and D enzymes (β-lactamases) (Klebsiella pneumoniae, UniProt Q9F663); test: biochemical; type: biochemical
biochemical = type: biochemical
[10] = minimum BLI concentration inhibiting growth with aztreonam 4 μg/mL, tested up to 40 μg/mL
[11] = minimum BLI concentration inhibiting growth with meropenem 8 μg/mL, tested up to 20 μg/mL
[12] = minimum BLI concentration inhibiting growth with tigemonam 4 μg/mL, tested up to 40 μg/mL
[13] = BLI concentration decreasing biapenem MIC 64-fold, from 32 μg/ml to 0.5 μg/ml, efflux deficient strain
[14] = BLI concentration decreasing biapenem MIC 64-fold, from 32 μg/ml to 0.5 μg/ml, efflux proficient strain
[15] = purified P99, nitrocefin (NCF) as reporter substrate
[16] = purified OXA-48, nitrocefin (NCF) as reporter substrate
[17] = purified CTX-M-14, nitrocefin (NCF) as reporter substrate
[18] = purified KPC-2, nitrocefin (NCF) as reporter substrate

purified class A, C and D enzymes (β-lactamases) (Escherichia coli, UniProt Q9L5C7), sequence (Q9L5C7 entry or part of it): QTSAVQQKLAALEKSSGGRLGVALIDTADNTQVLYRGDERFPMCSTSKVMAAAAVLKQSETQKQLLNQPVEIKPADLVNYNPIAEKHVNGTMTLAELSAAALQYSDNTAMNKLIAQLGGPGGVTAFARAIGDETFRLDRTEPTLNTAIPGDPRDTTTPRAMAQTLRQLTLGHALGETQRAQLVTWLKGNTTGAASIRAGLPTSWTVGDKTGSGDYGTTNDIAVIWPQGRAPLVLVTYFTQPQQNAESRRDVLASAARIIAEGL
purified class A, C and D enzymes (β-lactamases) (Enterobacter cloacae, UniProt P05364), sequence (P05364 21-381): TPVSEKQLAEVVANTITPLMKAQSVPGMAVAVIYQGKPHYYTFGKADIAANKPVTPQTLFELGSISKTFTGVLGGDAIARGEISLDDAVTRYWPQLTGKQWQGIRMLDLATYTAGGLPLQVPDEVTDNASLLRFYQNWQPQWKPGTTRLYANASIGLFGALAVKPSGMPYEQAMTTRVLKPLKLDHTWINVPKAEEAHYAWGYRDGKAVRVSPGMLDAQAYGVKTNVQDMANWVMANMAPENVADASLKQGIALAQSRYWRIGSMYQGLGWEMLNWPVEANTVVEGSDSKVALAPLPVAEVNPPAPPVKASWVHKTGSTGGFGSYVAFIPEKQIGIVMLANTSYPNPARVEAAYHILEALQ
T1 sequence (Q9L4P2 whole entry): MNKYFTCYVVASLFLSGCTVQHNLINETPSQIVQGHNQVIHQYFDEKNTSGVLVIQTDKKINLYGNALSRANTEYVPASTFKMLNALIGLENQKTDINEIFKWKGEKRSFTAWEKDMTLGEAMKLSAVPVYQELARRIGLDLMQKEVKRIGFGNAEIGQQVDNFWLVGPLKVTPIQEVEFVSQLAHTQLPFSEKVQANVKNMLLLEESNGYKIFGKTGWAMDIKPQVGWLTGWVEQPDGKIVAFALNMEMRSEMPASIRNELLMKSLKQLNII
T3 sequence (P24735 whole entry): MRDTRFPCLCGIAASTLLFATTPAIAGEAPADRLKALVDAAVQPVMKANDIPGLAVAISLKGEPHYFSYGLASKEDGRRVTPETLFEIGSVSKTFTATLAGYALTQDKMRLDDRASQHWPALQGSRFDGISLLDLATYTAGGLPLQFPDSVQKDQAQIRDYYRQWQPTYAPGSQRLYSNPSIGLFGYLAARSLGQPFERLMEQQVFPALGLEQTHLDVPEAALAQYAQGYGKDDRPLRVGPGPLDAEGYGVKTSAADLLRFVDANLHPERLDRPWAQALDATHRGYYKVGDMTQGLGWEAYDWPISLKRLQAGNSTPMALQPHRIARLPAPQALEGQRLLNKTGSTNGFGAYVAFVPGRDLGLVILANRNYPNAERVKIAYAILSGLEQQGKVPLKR

SMILES | AZT MPC4 CMY-6 EC1010 (EC1010 CMY-6; [10]) | AZT MPC4 KPC-2 KP1004 (KP1004 KPC-2 [1]; [10]) | AZT MPC4 SHV-5 ec308 (ec308 SHV-5) | MPM MPC8 AB1054 OXA-23 (AB1054 OXA-23; [11]) | TIG MPC4 CTX-M-14 KP1005 (KP1005 CTX-M-14; [12]) | AZT MPC4 SHV-12 KP1010 (KP1010 SHV-12; [10]) | BPM MPC1 OXA-48 KP1086 (KP1086 OXA-48) | AZT MPC4 TEM-10 ec302 (ec302 TEM-10) | AZT MPC4 CTX-M-15 KP1009 (KP1009 CTX-M-15) | AZT MPC4 ECL1002 (ECL1002) | MPM MPC8 AB1053 OXA-72 (AB1053 OXA-72) | BPM MPC1 KP1004 KPC-2 (KP1004 KPC-2 [2]) | PAM1154/KPC-2 Biapenem MPC64 (PAM1154/KPC-2; [13]) | PAM1032/KPC-2 Biapenem MPC64 (PAM1032/KPC-2; [14]) | Ki [3] [nM] | Ki (P99, NCF), uM [4, 15] | Ki (OXA-48, NCF), uM [5, 16] | Ki [6] [nM] | Ki (CTX-M-14, NCF), uM [7, 17] | Ki (KPC-2, NCF), uM [9, 18] | also measured
CSCC(=O)NC1CB(O)Oc2c(C(=O)O)cccc21 (stereo not drawn) [Compound 3, 2-HYDROXY-4-(2-(METHYLTHIO)ACETAMIDO)-3,4-DIHYDRO-2H-BENZO[E][1.2]OXABORININE-8-CARBOXYLIC ACID] | X (X = MPC@4 ≤ 5 μg/mL) | X (X = MPC@4 ≤ 5 μg/mL) | X (X = MPC@4 ≤ 5 μg/mL) | Z (Z = MPC@1 > 20 μg/mL) | X (X = MPC@4 ≤ 5 μg/mL) | X (X = MPC@4 ≤ 5 μg/mL) | X (X = MPC@1 ≤ 5 μg/mL) | X (X = MPC@4 ≤ 5 μg/mL) | X (X = MPC@4 ≤ 5 μg/mL) | X (X = MPC@4 ≤ 5 μg/mL) | Y (Y = 5 μg/mL < MPC@1 ≤ 20 μg/mL) | X (X = MPC@1 ≤ 5 μg/mL) | 2.5 | 20 | < 100 | X (X = Ki ≤ 0.1 μM) | X (X = Ki ≤ 0.1 μM) | < 100 | X (X = Ki ≤ 0.1 μM) | X (X = Ki ≤ 0.1 μM) | Ki ([8]; purified Pa-AmpC, nitrocefin (NCF) as reporter substrate, read-out: Ki (Pa-AmpC, NCF)): < 100 nM
O=C([O-])c1c(F)ccc2c1O[B-](O)(O)CC2.[Na+].[Na+] [Compound 8, DISODIUM; 8-FLUORO-4,4-DIHYDROXY-5-OXA-4-BORANUIDABICYCLO[4.4.0]DECA-1(6),7,9-TRIENE-7-CARBOXYLATE] | – | – | X (X = MPC@4 ≤ 5 μg/mL) | – | – | – | X (X = MPC@1 ≤ 5 μg/mL) | X (X = MPC@4 ≤ 5 μg/mL) | X (X = MPC@4 ≤ 5 μg/mL) | X (X = MPC@4 ≤ 5 μg/mL) | X (X = MPC@1 ≤ 5 μg/mL) | X (X = MPC@1 ≤ 5 μg/mL) | – | – | – | – | – | – | – | – | AZT MPC4 CMY-6 EC1010 (EC1010 CMY-6): X (key: X = MPC@4 ≤ 5 μg/mL; Y = 5 μg/mL < MPC@4 ≤ 20 μg/mL; Z = MPC@4 > 20 μg/mL); AZT MPC4 KPC-2 KP1004 (KP1004 KPC-2 [1]): X (key: X = MPC@4 ≤ 5 μg/mL; Y = 5 μg/mL < MPC@4 ≤ 20 μg/mL; Z = MPC@4 > 20 μg/mL); MPM MPC8 AB1054 OXA-23 (AB1054 OXA-23): X (key: X = MPC@1 ≤ 5 μg/mL; Y = 5 μg/mL < MPC@1 ≤ 20 μg/mL; Z = MPC@1 > 20 μg/mL); TIG MPC4 CTX-M-14 KP1005 (KP1005 CTX-M-14): X (key: X = MPC@4 ≤ 5 μg/mL; Y = 5 μg/mL < MPC@4 ≤ 20 μg/mL; Z = MPC@4 > 20 μg/mL); AZT MPC4 SHV-12 KP1010 (KP1010 SHV-12): X (key: X = MPC@4 ≤ 5 μg/mL; Y = 5 μg/mL < MPC@4 ≤ 20 μg/mL; Z = MPC@4 > 20 μg/mL); PAM1154/KPC-2 Biapenem MPC64 (PAM1154/KPC-2): 0.6; PAM1032/KPC-2 Biapenem MPC64 (PAM1032/KPC-2): 5; Ki (P99, NCF), uM [4]: X (key: X = Ki ≤ 0.1 μM; Y = 0.1 μM < Ki ≤ 1 μM; Z = Ki > 1 μM); Ki (OXA-48, NCF), uM [5]: X (key: X = Ki ≤ 0.1 μM; Y = 0.1 μM < Ki ≤ 1 μM; Z = Ki > 1 μM); Ki (CTX-M-14, NCF), uM [7]: X (key: X = Ki ≤ 0.1 μM; Y = 0.1 μM < Ki ≤ 1 μM; Z = Ki > 1 μM); Ki [8]: < 100 nM; Ki (KPC-2, NCF), uM [9]: X (key: X = Ki ≤ 0.1 μM; Y = 0.1 μM < Ki ≤ 1 μM; Z = Ki > 1 μM); Ki (biochemical): < 100 nM
Nc1nnc(C(=O)NC2CB(O)Oc3c(C(=O)O)cccc32)s1 (stereo not drawn) [Compound 2, 4-(5-AMINO-1,3,4-THIADIAZOLE-2-CARBOXAMIDO)-2-HYDROXY-3,4-DIHYDRO-2H-BENZO[E][1,2]OXABORININE-8-CARBOXYLIC ACID] | X (X = MPC@4 ≤ 5 μg/mL) | X (X = MPC@4 ≤ 5 μg/mL) | X (X = MPC@4 ≤ 5 μg/mL) | – | X (X = MPC@4 ≤ 5 μg/mL) | X (X = MPC@4 ≤ 5 μg/mL) | X (X = MPC@1 ≤ 5 μg/mL) | X (X = MPC@4 ≤ 5 μg/mL) | X (X = MPC@4 ≤ 5 μg/mL) | X (X = MPC@4 ≤ 5 μg/mL) | – | X (X = MPC@1 ≤ 5 μg/mL) | 1.25 | 20 | – | X (X = Ki ≤ 0.1 μM) | X (X = Ki ≤ 0.1 μM) | < 100 | X (X = Ki ≤ 0.1 μM) | X (X = Ki ≤ 0.1 μM) | –
O=C(O)c1cccc2c1OB(O)CC2 [Compound 5, 2-HYDROXY-3,4-DIHYDRO-1,2-BENZOXABORININE-8-CARBOXYLIC ACID] | Y (Y = 5 μg/mL < MPC@4 ≤ 20 μg/mL) | X (X = MPC@4 ≤ 5 μg/mL) | Z (Z = MPC@4 > 20 μg/mL) | Y (Y = 5 μg/mL < MPC@1 ≤ 20 μg/mL) | Z (Z = MPC@4 > 20 μg/mL) | Y (Y = 5 μg/mL < MPC@4 ≤ 20 μg/mL) | X (X = MPC@1 ≤ 5 μg/mL) | Z (Z = MPC@4 > 20 μg/mL) | Y (Y = 5 μg/mL < MPC@4 ≤ 20 μg/mL) | Z (Z = MPC@4 > 20 μg/mL) | Z (Z = MPC@1 > 20 μg/mL) | X (X = MPC@1 ≤ 5 μg/mL) | 0.3 | 20 | 100 to 1000 | X (X = Ki ≤ 0.1 μM) | X (X = Ki ≤ 0.1 μM) | < 100 | X (X = Ki ≤ 0.1 μM) | X (X = Ki ≤ 0.1 μM) | –
